Measurements published in patent US7314716B2, “Gustducin γ subunit materials and methods” (Mount Sinai School of Medicine, priority 1999, dated 2008).

Key:
[1] = tested on: gustducin α subunit; assay: Trypsin sensitivity assay of gustducin α subunit activation by denatonium-stimulated taste membranes; assay type: biochemical
Description: To confirm this idea, yet another trypsin sensitivity assay was utilized.
Five μl aliquots of in vitro translated gustducin α subunit were incubated with 5 μg of purified taste membranes or control non-taste membranes, 0.1 mM GDP, 1 μM GTPγS, with or without 5 mM of the bitter compound denatonium, plus a 10 μl aliquot of cotranslated β1/gustducin γ subunit or β2/γ2 dimer, or 10 μl rabbit reticulocyte lysate (the minus βγ control) for 1 hour at 30° C., followed by digestion with trypsin as described in Ming et al., Proc. Natl. Acad. Sci. USA, 95: 8933–8938 (1998).

[2] = tested on: murine taste tissue; assay: Rapid time course quench-flow IP3 generation in murine taste tissue; assay type: biochemical, mouse; details: addition to murine taste tissue homogenate supernatant
Description: To confirm that gustducin γ subunit does indeed function in taste transduction rapid time course quench-flow experiments were carried out essentially as described in Tarelius et al., pp. 193–202 in Spielman et al., Eds., Experimental Cell Biology of Taste and Olfaction. Current Techniques & Protocols, CRC Press, Boca Raton (1995). […] Furthermore, it has been shown that the denatonium response depends upon a novel phospholipase C (PLC) β2 isotype specifically expressed in taste receptor cells.
Tongues were excised from 6 to 8 week old female SWR mice, and lingual papillae removed. One vallate and two foliate papillae and nongustatory control tissue from the dorsal eminence of the peeled epithelium were placed in ice-cold MOPS buffer pH 6.9 (50 mM MOPS, 100 mM NaCl, 0.081 mM CaCl2 and 2.5 mM MgCl2), containing 10 mM EGTA, 1 mM DTT, and a protease inhibitor cocktail [1 mg/ml, specific for serine, cysteine, aspartic and metallo-proteinases (Sigma)]. Tissue collected from twenty-five tongues was homogenized in MOPS-EGTA buffer pH 6.9, without the enzyme inhibitors, and centrifuged (1000×g for 20 min. at 4° C.). The recovered supernatant (at a protein concentration of about 30 μg/ml), was used for rapid kinetic experiments. […]

[3] = tested on: murine taste tissue; details: shown previously; cited from earlier work
[4] = taste receptor-containing membranes stimulated by 5 mM denatonium

Row | Molecule | enhancement of activation of gustducin α subunit ([1]; control non-taste membranes) | enhancement of activation of gustducin α subunit [1, 4] | generation of IP3 relative to basal level [2] | generation of IP3 in control non-taste tissue [3]
1 | β1/gustducin γ subunit: cotranslated β1/gustducin γ subunit dimer | did not enhance activation | enhanced activation | – | –
2 | CC[N+](CC)(CC(=O)Nc1c(C)cccc1C)Cc1ccccc1 [denatonium benzoate] | – | – | slightly more than twice the basal level | not in control non-taste tissue
3 | β2/γ2: cotranslated β2/γ2 dimer [reference compound] | – | did not enhance activation | – | –
4 | CC(=O)OC[C@H]1O[C@@](COC(C)=O)(O[C@H]2O[C@H](COC(C)=O)[C@@H](OC(C)=O)[C@H](OC(C)=O)[C@H]2OC(C)=O)[C@@H](OC(C)=O)[C@@H]1OC(C)=O [sucrose octa-acetate] | – | – | – | not in control non-taste tissue
